Here are results for twelve molecules from patent publication US9670147B2, “Antioxidant inflammation modulators: oleanolic acid derivatives with amino and other modifications at C-17” (REATA PHARMACEUTICALS, INC., priority 2008, dated 2017).

For experiment [1], the system named is IFNγ-induced NO production in RAW264.7 macrophages. As to the kind of experiment: Suppression of IFNγ-induced NO production (Griess reagent). It is filed as cell-based, mouse. As to conditions: Mus musculus, 2 h pre-treatment, then 20 ng/ml IFNγ for 24 hours. Here is the method:
(§1) FIGS. 1-34. Inhibition of NO Production. RAW264.7 macrophages were pre-treated with DMSO or drugs at various concentrations (nM) for 2 hours, then treated with 20 ng/ml IFNγ for 24 hours. NO concentration in media was determined using the Griess reagent system; cell viability was determined using WST-1 reagent. FIGS. 49-52. Inhibition of NO Production. RAW264.7 macrophages were pre-treated with DMSO or drugs at various concentrations (nM) for 2 hours, then treated with 20 ng/ml IFNγ for 24 hours. NO concentration in media was determined using the Griess reagent system; cell viability was determined using WST-1 reagent. RAW264.7 macrophages were pre-treated with DMSO or drugs for 2 hours, then treated with recombinant mouse IFNγ (Sigma) for 24 hours. NO concentration in media was determined using the Griess reagent system (Promega). Cell viability was determined using WST-1 reagent (Roche).

The test system of another experiment is RAW264.7 macrophages. Briefly: Cell viability, WST-1 reagent. It is filed as cell-based, mouse. Particulars: Mus musculus, 2 h pre-treatment, then 20 ng/ml IFNγ for 24 hours. Here is the method:
as §1

Another experiment concerns HO-1. As to the kind of experiment: Nrf2 target gene induction in MDA-MB-435 cells, qPCR: HO-1. It is filed as cell-based, human. Particulars: 16 hours. Here is the method: FIG. 43. Induction of HO-1. FIGS. 43A and 43B: MDA-MB-435 human melanoma cells were treated with vehicle (DMSO) or the indicated compounds and concentrations for 16 hours. HO-1 mRNA levels were quantified using qPCR and were normalized relative to a DMSO-treated sample run in parallel. Values are averages of duplicate wells. FIG. 43C: MDA-MB-435 cells were treated with vehicle (DMSO) or the indicated compounds at 400 nM for 16 hours. HO-1, TrxR1 and actin protein levels were assayed by immunoblotting. Actin served as a loading control.
(§2) FIGS. 44, 46 and 47—Induction of HO-1, TrxR1 and γ-GCS. FIGS. 44A-C, 46A-C, 47A-C: MDA-MB-435 human melanoma cells were treated with vehicle (DMSO) or the indicated compounds (400 nM) for 16 hours. HO-1, thioredoxin reductase-1 (TrxR1), and γ-glutamylcysteine synthetase (γ-GCS) mRNA levels were quantified using qPCR and were normalized relative to a DMSO-treated sample run in parallel. Values are averages of duplicate wells. FIGS. 44D, 46D, 47D: MDA-MB-435 cells were treated with vehicle (DMSO) or the indicated compounds at 400 nM for 16 hours. HO-1, TrxR1 and actin protein levels were assayed by immunoblotting.
(§3) FIG. 45. Induction of HO-1, TrxR1 and γ-GCS. FIGS. 45 A-C: MDA-MB-435 cells were treated with vehicle (DMSO) or the indicated compounds at 160 nM for 16 hours. HO-1, TrxR1, and γ-GCS mRNA levels were quantified by qPCR and were normalized relative to a DMSO-treated sample run in parallel. Values are averages of duplicate wells. FIGS. 44D, 46D, 47D: MDA-MB-435 cells were treated with vehicle (DMSO) or the indicated compounds at 160 nM for 16 hours. HO-1, TrxR1 and actin protein levels were assayed by immunoblotting.
(§4) MDA-MB-435 human melanoma cells were treated with vehicle (DMSO) or the indicated compounds and concentrations for 16 hours. HO-1, thioredoxin reductase-1 (TrxR1), γ-glutamylcysteine synthetase (γ-GCS), and ferritin heavy chain mRNA levels were quantified using qPCR and were normalized relative to a DMSO-treated sample run in parallel. Values are averages of duplicate wells. Primer sequences are as follows.

In another experiment the test system is TrxR1. As to the kind of experiment: Nrf2 target gene induction in MDA-MB-435 cells, qPCR: TrxR1. It is filed as cell-based, human. As to conditions: 16 hours. Here is the method:
as §2, §3, §4

Another experiment concerns γ-GCS. As to the kind of experiment: Nrf2 target gene induction in MDA-MB-435 cells, qPCR: γ-GCS. It is filed as cell-based, human. Particulars: 16 hours. Here is the method:
as §2, §3, §4

A further experiment has as its system iNOS. As to the kind of experiment: iNOS Western blot in RAW264.7 mouse macrophages. It is filed as cell-based. As to conditions: compounds at 300 nM for 2 hours, 24 hour induction by IFNγ, read-out: iNOS suppr. WB. Here is the method:
FIGS. 38-40. iNOS Western Blot in RAW264.7 mouse macrophages. Cells were pretreated by compounds at 300 nM for 2 hours, followed by 24 hour induction by IFNγ (20 ng/ml). […]

As for `CNC(=O)N[C@]12CCC(C)(C)C[C@H]1[C@H]1C(=O)C=C3[C@@]4(C)C=C(C#N)C(=O)C(C)(C)[C@@H]4CC[C@@]3(C)[C@]1(C)CC2` [Compound 63172, 1-((4aS,6aR,6bS,8aR,12aS,14aR,14bS)-11-cyano-2,2,6a,6b,9,9,12a-heptamethyl-10,14-dioxo-1,2,3,4,4a,5,6,6a,6b,7,8,8a,9,10,12a,14,14a,14b-octadecahydropicen-4a-yl)-3-methylurea], the IC50 in experiment [1] is 30 nM; in the experiment with RAW264.7 macrophages, > 200 nM. For the same molecule, the HO-1 induction in the experiment with HO-1 (160 nM) is reported as 4% of induction observed for RTA 402. The TrxR1 induction in the experiment with TrxR1 (160 nM) is 43% of induction observed for RTA 402. Further, the γ-GCS induction with γ-GCS (160 nM) is given as 27% of induction observed for RTA 402.

Take `C=CCOC(=O)N[C@]12CCC(C)(C)C[C@H]1[C@H]1C(=O)C=C3[C@@]4(C)C=C(C#N)C(=O)C(C)(C)[C@@H]4CC[C@@]3(C)[C@]1(C)CC2` [Compound 63186, allyl-(4aS,6aR,6bS,8aR,12aS,14aR,14bS)-11-cyano-2,2,6a,6b,9,9,12a-heptamethyl-10,14-dioxo-1,2,3,4,4a,5,6,6a,6b,7,8,8a,9,10,12a,14,14a,14b-octadecahydropicen-4a-ylcarbamate]: the half-inhibitory concentration (IC50) was 3 to 6 nM in experiment [1] and 100 nM with RAW264.7 macrophages.

With `CC1(C)CC[C@]2(NS(=O)(=O)c3cccs3)CC[C@]3(C)[C@H](C(=O)C=C4[C@@]5(C)C=C(C#N)C(=O)C(C)(C)[C@@H]5CC[C@]43C)[C@@H]2C1` [Compound 63187, N-((4aS,6aR,6bS,8aR,12aS,14aR,14bS)-11-cyano-2,2,6a,6b,9,9,12a-heptamethyl-10,14-dioxo-1,2,3,4,4a,5,6,6a,6b,7,8,8a,9,10,12a,14,14a,14b-octadecahydropicen-4a-yl)thiophene-2-sulfonamide], the figures for the IC50 (in experiment [1]; in the experiment on RAW264.7 macrophages) were 2 to 5 nM and 100 nM, respectively. Also, in the experiment with iNOS, the inhibition at 0.3 µM is > 90%. Also, the HO-1 induction with HO-1 (400 nM) is recorded as 32% of induction observed for RTA 402. Further, the TrxR1 induction with TrxR1 (400 nM) is given as 90% of induction observed for RTA 402. The γ-GCS induction in the experiment on γ-GCS (400 nM) is reported as 90% of induction observed for RTA 402.

With `CC1(C)CC[C@]2(NC(=O)N3CCOCC3)CC[C@]3(C)[C@H](C(=O)C=C4[C@@]5(C)C=C(C#N)C(=O)C(C)(C)[C@@H]5CC[C@]43C)[C@@H]2C1` [Compound 63188, N-((4aS,6aR,6bS,8aR,12aS,14aR,14bS)-11-cyano-2,2,6a,6b,9,9,12a-heptamethyl-10,14-dioxo-1,2,3,4,4a,5,6,6a,6b,7,8,8a,9,10,12a,14,14a,14b-octadecahydropicen-4a-yl)morpholine-4-carboxamide], the IC50 is 27 nM in experiment [1] and > 200 nM in the experiment on RAW264.7 macrophages.

As to `CCC(=O)N[C@]12CCC(C)(C)C[C@H]1[C@H]1C(=O)C=C3[C@@]4(C)C=C(C#N)C(=O)C(C)(C)[C@@H]4CC[C@@]3(C)[C@]1(C)CC2` [Compound 63189, N-((4aS,6aR,6bS,8aR,12aS,14aR,14bS)-11-cyano-2,2,6a,6b,9,9,12a-heptamethyl-10,14-dioxo-1,2,3,4,4a,5,6,6a,6b,7,8,8a,9,10,12a,14,14a,14b-octadecahydropicen-4a-yl)propionamide], the half-maximal inhibitory concentration (IC50) turned out to be 7.5 nM in experiment [1] and 75 nM in the experiment on RAW264.7 macrophages.

For the molecule `CC1(C)CC[C@]2(NCC#N)CC[C@]3(C)[C@H](C(=O)C[C@@H]4[C@@]5(C)C=C(C#N)C(=O)C(C)(C)[C@@H]5CC[C@]43C)[C@@H]2C1` [Compound 63222, (4aR,6aR,6bR,8aS,12aS,12bR,14aR,14bR)-8a-(cyanomethylamino)-4,4,6a,6b,11,11,14b-heptamethyl-3,13-dioxo-3,4,4a,5,6,6a,6b,7,8,8a,9,10,11,12,12a,12b,13,14,14a,14b-icosahydropicene-2-carbonitrile], the IC50 in experiment [1] is ~45 nM; in the experiment on RAW264.7 macrophages, > 200 nM.

For `CC1(C)CC[C@]2(NC(=O)C3CC3)CC[C@]3(C)[C@H](C(=O)C[C@@H]4[C@@]5(C)C=C(C#N)C(=O)C(C)(C)[C@@H]5CC[C@]43C)[C@@H]2C1` [Compound 63236, N-((4aS,6aR,6bR,8aR,12aR,12bR,14aR,14bS)-11-cyano-2,2,6a,6b,9,9,12a-heptamethyl-10,14-dioxo-1,2,3,4,4a,5,6,6a,6b,7,8,8a,9,10,12a,12b,13,14,14a,14b-icosahydropicen-4a-yl)cyclopropanecarboxamide], the IC50 in experiment [1] was ~120 nM; with RAW264.7 macrophages, > 200 nM.

Consider `CCN[C@]12CCC(C)(C)C[C@H]1[C@H]1C(=O)C[C@@H]3[C@@]4(C)C=C(C#N)C(=O)C(C)(C)[C@@H]4CC[C@@]3(C)[C@]1(C)CC2` [Compound 63238, (4aR,6aR,6bR,8aS,12aS,12bR,14aR,14bR)-8a-(ethylamino)-4,4,6a,6b,11,11,14b-heptamethyl-3,13-dioxo-3,4,4a,5,6,6a,6b,7,8,8a,9,10,11,12,12a,12b,13,14,14a,14b-icosahydropicene-2-carbonitrile], for which the concentration for half-maximal inhibition (IC50) in experiment [1] was ~120 nM; with RAW264.7 macrophages, > 200 nM.

For `CC1(C)CC[C@]2(NC(=O)Cc3ccccc3)CC[C@]3(C)[C@H](C(=O)C=C4[C@@]5(C)C=C(C#N)C(=O)C(C)(C)[C@@H]5CC[C@]43C)[C@@H]2C1` [Compound 63244, N-((4aS,6aR,6bS,8aR,12aS,14aR,14bS)-11-cyano-2,2,6a,6b,9,9,12a-heptamethyl-10,14-dioxo-1,2,3,4,4a,5,6,6a,6b,7,8,8a,9,10,12a,14,14a,14b-octadecahydropicen-4a-yl)-2-phenylacetamide], the IC50 in experiment [1] amounted to 10 nM; in the experiment with RAW264.7 macrophages it was 200 nM.

For `CN(C)[C@]12CCC(C)(C)C[C@H]1[C@H]1C(=O)C=C3[C@@]4(C)C=C(C#N)C(=O)C(C)(C)[C@@H]4CC[C@@]3(C)[C@]1(C)CC2` [Compound 63245, (4aR,6aS,6bR,8aS,12aS,12bR,14bS)-8a-(dimethylamino)-4,4,6a,6b,11,11,14b-heptamethyl-3,13-dioxo-3,4,4a,5,6,6a,6b,7,8,8a,9,10,11,12,12a,12b,13,14b-octadecahydropicene-2-carbonitrile], the half-inhibitory concentration (IC50) in experiment [1] was 33 nM; in the experiment with RAW264.7 macrophages it was > 200 nM.

For `C#CC(=O)N[C@]12CCC(C)(C)C[C@H]1[C@H]1C(=O)C=C3[C@@]4(C)C=C(C#N)C(=O)C(C)(C)[C@@H]4CC[C@@]3(C)[C@]1(C)CC2` [Compound 63246, N-((4aS,6aR,6bS,8aR,12aS,14aR,14bS)-11-cyano-2,2,6a,6b,9,9,12a-heptamethyl-10,14-dioxo-1,2,3,4,4a,5,6,6a,6b,7,8,8a,9,10,12a,14,14a,14b-octadecahydropicen-4a-yl)propiolamide], the IC50 is ~3 nM in experiment [1] and > 200 nM in the experiment on RAW264.7 macrophages. Besides, in the experiment on iNOS, the inhibition at 0.3 µM was > 90%. Moreover, the HO-1 induction in the experiment on HO-1 (400 nM) was 25% of induction observed for RTA 402. Further, the TrxR1 induction with TrxR1 (400 nM) is given as 66% of induction observed for RTA 402. Further, in the experiment with γ-GCS (400 nM), the γ-GCS induction is reported as 77% of induction observed for RTA 402.

Consider `CC1(C)CC[C@]2(NC(=O)OC3CCOC3)CC[C@]3(C)[C@H](C(=O)C[C@@H]4[C@@]5(C)C=C(C#N)C(=O)C(C)(C)[C@@H]5CC[C@]43C)[C@@H]2C1` (stereo partly drawn) [Compound 63265, tetrahydrofuran-3-yl(4aS,6aR,6bR,8aR,12aR,12bR,14aR,14bS)-11-cyano-2,2,6a,6b,9,9,12a-heptamethyl-10,14-dioxo-1,2,3,4,4a,5,6,6a,6b,7,8,8a,9,10,12a,12b,13,14,14a,14b-icosahydropicen-4a-ylcarbamate], for which the IC50 in experiment [1] was ~100 nM; in the experiment on RAW264.7 macrophages, > 200 nM.
